The values below come from patent US6177475A, “Methods of using integrin modulators for treatment of inflammation” (priority 1997, dated 2001).

SMILES strings stand for the structures.

The test system of one experiment is LFA-1 (ICAM-1). The experiment can be described thus: Adhesion of TPA-activated Jurkat cells to SVT2/ICAM-1 monolayers. Type of experiment: cell-based. Particulars: Homo sapiens, 0.75 h, SVT2/ICAM-1, TPA 125 ng/ml, 45 min. How it is done:
SVT2 cells transfected with human ICAM-1 or VCAM-1 (SVT2/ICAM-1 and […], respectively) were plated into 96-well plates and cultured overnight. […] The labeled Jurkat cells were washed three times and resuspended at a density of 4×10^6 cells/ml in complete RPMI medium. Serial dilutions of Ajoene were prepared in complete RPMI medium. Aliquots of the cells (0.5 ml) were then mixed with an equal volume of Ajoene dilutions (1:1 v/v), and the mixtures incubated at 37° C. for 30 min. Thereafter, Ajoene-incubated cells were added in duplicate to SVT2/ICAM-1 and SVT2/VCAM-1 monolayers, and TPA was introduced into each well to the final concentration of 125 ng/ml. The plates were incubated at 37° C. for 45 min, after which the non-adherent cells were removed by washing with warm complete RPMI medium. The bound labeled cells were lysed by adding 1% Triton X-100 solution in 0.1 N HCl. The lysates were assayed in a gamma counter to determine the percentage of bound cells. […] Thus, coculturing of Jurkat cells with SVT2/ICAM-1 and SVT2/VCAM-1 cells makes it possible to assess, respectively, the function of IFA-1 and VLA-4 under identical conditions. In the absence of TPA, 10 and 20% of the added Jurkat cells adhered to SVT2/ICAM-1 and SVT2/VCAM-1 cells, respectively. […]

The next experiment concerns LFA-1. Briefly: TPA-induced homotypic adhesion (aggregation) of peripheral blood leukocytes. The experiment is classed as cell-based, human. As to conditions: ~100 micromoles per liter Ajoene. Here is the method: Normal human peripheral blood leukocytes (PBLS) were cultured for 5 days without stimulation in complete RPMI medium (Sigma Chemical Co., St. Louis, Mo.), washed, and resuspended at 9×10^6 cells/ml in the same medium. Fifty microliters of the cells were added in duplicate to wells containing 100 microliters of an Ajoene solution (50 micrograms/ml),anti-LFA-1 antibody (H52) solution (20 micrograms/ml), or vehicle controls. The plate was then incubated for 30 min at 37° C. before adding to each well 50 microliters of a solution of 12-O-tetradecanoyl 4-β-phorbol 13-acetate (TPA) to the final concentration of 125 ng/ml). The plate was incubated for 45 min at 37° C., followed by additional 10-min incubation at room temperature on a shaking platform. The cells were allowed to settle, and adhesion was quantitated by counting the number of free cells in random high-power fields in the duplicate wells. Following incubation with TPA, 75 to 90% of cells are typically found in large aggregates as a result of LFA-1 upregulation. TPA induced a 90% aggregation in PBLs that were preincubated with vehicle controls. […] This example provides conclusive evidence that, in addition to GP IIb/IIIa and VIA-4, Ajoene modulates the integrin LFA-1. […]

What is called IC50 is the midpoint of a concentration-inhibition curve. Read a low IC50 as inhibition by little substance. In the experiment on LFA-1 (ICAM-1), `C=CCSSC=CC[S+]([O-])CC=C` (centres unmarked) [Ajoene, 4,5,9-trithiadodeca-1,6,11-triene-9-oxide] returned a 50% inhibitory concentration (IC50) of 10 µM. In addition, the “inhibition of TPA-induced homotypic adhesion of PBLs” value in the experiment with LFA-1 was “completely inhibited”.
